Measured values published in patent US20180099931A1 (AbbVie S.à.r.l., priority 2016, published 2018).
Where two headings read alike, the source gives them in different places.

Target: T1, F508delCFTR (Homo sapiens, UniProt P13569, DEL508-508)
T1 construct: expressed in transfected cells; host or cells: CFBE41o- human lung-derived epithelial cells (CFBE4lo-F508delCFTR-HRP), doxycycline-inducible
Assay: Cell Surface Expression-Horse Radish Peroxidase (CSE-HRP) Assay;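 on Maximum % activity (with co-corrector): co-corrector and positive control are both the same reference corrector at 2 µM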;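 on Maximum % activity (without co-corrector): percent of the 2 µM on-plate positive control corrector response above DMSO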
Type: cell-based
Conditions: for Emax / Maximum % activity (with co-corrector): maximum at any tested concentration, normalized to on-plate positive control; for Emax: read-out: Maximum % activity (without co-corrector)

[1] = test compound without co-corrector
[2] = test compound without co-corrector, read-out: EC50 (without co-corrector)
[3] = with co-corrector (2 μM of 3-[(2R,4R)-4-({[1-(2,2-difluoro-1,3-benzodioxol-5-yl)cyclopropyl]carbonyl}amino)-7-methoxy-3,4-dihydro-2H-chromen-2-yl]benzoic acid)
[4] = with co-corrector (2 μM of 3-[(2R,4R)-4-({[1-(2,2-difluoro-1,3-benzodioxol-5-yl)cyclopropyl]carbonyl}amino)-7-methoxy-3,4-dihydro-2H-chromen-2-yl]benzoic acid), read-out: EC50 (with co-corrector)

T1 sequence (P13569 with tags, fused parts or gaps DEL508-508): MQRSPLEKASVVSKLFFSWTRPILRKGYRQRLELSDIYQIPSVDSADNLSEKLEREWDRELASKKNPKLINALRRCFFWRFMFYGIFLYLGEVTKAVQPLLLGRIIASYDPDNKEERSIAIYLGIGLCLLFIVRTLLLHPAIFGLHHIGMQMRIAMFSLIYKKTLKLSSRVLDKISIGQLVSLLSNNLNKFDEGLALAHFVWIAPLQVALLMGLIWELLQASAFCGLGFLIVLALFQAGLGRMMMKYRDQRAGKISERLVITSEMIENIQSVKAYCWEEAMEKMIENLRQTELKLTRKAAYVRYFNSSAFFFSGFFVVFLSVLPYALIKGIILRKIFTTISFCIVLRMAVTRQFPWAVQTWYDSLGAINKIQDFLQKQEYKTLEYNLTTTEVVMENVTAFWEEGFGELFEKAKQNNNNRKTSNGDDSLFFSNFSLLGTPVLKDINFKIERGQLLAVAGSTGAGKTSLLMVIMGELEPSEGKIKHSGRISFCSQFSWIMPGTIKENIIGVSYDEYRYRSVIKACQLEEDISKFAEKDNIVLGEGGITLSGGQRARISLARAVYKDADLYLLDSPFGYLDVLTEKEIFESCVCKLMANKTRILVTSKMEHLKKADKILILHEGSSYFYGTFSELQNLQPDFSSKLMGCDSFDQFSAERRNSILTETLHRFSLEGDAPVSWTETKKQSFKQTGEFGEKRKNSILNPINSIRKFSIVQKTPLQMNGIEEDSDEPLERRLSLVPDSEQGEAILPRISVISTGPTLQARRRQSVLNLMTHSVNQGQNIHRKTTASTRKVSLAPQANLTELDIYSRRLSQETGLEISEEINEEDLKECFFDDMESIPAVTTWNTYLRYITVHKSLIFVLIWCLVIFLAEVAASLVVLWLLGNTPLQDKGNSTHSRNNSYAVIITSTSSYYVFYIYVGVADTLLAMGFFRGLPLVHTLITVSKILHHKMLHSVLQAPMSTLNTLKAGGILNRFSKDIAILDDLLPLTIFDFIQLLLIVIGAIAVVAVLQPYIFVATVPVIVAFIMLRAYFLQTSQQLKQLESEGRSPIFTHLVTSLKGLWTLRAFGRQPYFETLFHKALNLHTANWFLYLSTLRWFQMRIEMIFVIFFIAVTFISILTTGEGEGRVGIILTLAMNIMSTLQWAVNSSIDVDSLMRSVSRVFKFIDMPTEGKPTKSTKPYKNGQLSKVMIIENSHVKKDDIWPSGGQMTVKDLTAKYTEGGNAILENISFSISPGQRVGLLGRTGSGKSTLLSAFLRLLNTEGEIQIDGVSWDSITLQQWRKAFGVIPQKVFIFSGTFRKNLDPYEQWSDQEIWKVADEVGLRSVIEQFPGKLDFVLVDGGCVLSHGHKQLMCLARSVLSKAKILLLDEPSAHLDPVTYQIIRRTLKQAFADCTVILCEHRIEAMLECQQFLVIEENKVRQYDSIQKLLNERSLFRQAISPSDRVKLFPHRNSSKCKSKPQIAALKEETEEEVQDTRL

Row | SMILES | Emax [1] | EC50 [2] | Maximum % activity (with co-corrector) [3] | EC50 [4]
1 | COc1ccc(C(C)(C)C)cc1CN[C@H]1[C@H](C(C)(C)C)[C@@H](C(=O)O)N(C(=O)C2CCCCO2)[C@H]1c1ccccc1 (some centres unmarked) [II-318] | > 200% | 1 to 10 µM | +++ (≥350) | 1 to 10 µM
2 | COc1ccc(C(C)(C)C)cc1CN[C@H]1[C@H](C(C)(C)C)[C@@H](C(=O)O)N(C(=O)[C@H](C)Oc2ccccc2)[C@H]1c1ccccc1 [II-319] | > 200% | 1 to 10 µM | +++ (≥350) | < 1 µM
3 | COc1ccc(C(C)(C)C)cc1CN[C@H]1[C@H](C(C)(C)C)[C@@H](C(=O)O)N(C(=O)C2CCc3cc(F)ccc3O2)[C@H]1c1ccccc1 (some centres unmarked) [II-320] | > 200% | 1 to 10 µM | +++ (≥350) | < 1 µM
4 | COc1ccc(C(C)(C)C)cc1CN[C@H]1[C@H](C(C)(C)C)[C@@H](C(=O)O)N(C(=O)C2CC=CC2)[C@H]1c1ccccc1 [II-321] | > 200% | 1 to 10 µM | +++ (≥350) | < 1 µM
5 | COc1ccc(C(C)(C)C)cc1CN[C@H]1[C@H](C(C)(C)C)[C@@H](C(=O)O)N(C(=O)[C@H]2CCCO2)[C@H]1c1ccccc1 [II-322] | 100 to 200% | 1 to 10 µM | +++ (≥350) | 1 to 10 µM
6 | COc1ccc(C(C)(C)C)cc1CN[C@H]1[C@H](C(C)(C)C)[C@@H](C(=O)O)N(C(=O)C(C)Oc2cccc(C)c2C)[C@H]1c1ccccc1 (some centres unmarked) [II-323] | 100 to 200% | 1 to 10 µM | +++ (≥350) | < 1 µM
7 | COc1ccc(C(C)(C)C)cc1CN[C@H]1[C@H](C(C)(C)C)[C@@H](C(=O)O)N(C(=O)C(C)Oc2ccccc2F)[C@H]1c1ccccc1 (some centres unmarked) [II-324] | > 200% | 1 to 10 µM | +++ (≥350) | < 1 µM
8 | COc1ccc(C(C)(C)C)cc1CN[C@H]1[C@H](C(C)(C)C)[C@@H](C(=O)O)N(C(=O)C(C)Sc2ccccc2)[C@H]1c1ccccc1 (some centres unmarked) [II-325] | > 200% | < 1 µM | +++ (≥350) | < 1 µM
9 | COc1ccc(C(C)(C)C)cc1CN[C@H]1[C@H](C(C)(C)C)[C@@H](C(=O)O)N(C(=O)[C@@H](C)c2ccccc2)[C@H]1c1ccccc1 [II-326] | > 200% | 1 to 10 µM | +++ (≥350) | < 1 µM
10 | COc1ccc(C(C)(C)C)cc1CN[C@H]1[C@H](C(C)(C)C)[C@@H](C(=O)O)N(C(=O)C2CC2(F)F)[C@H]1c1ccccc1 (some centres unmarked) [II-327] | 100 to 200% | 1 to 10 µM | +++ (≥350) | 1 to 10 µM
11 | COc1ccc(C(C)(C)C)cc1CN[C@H]1[C@H](C(C)(C)C)[C@@H](C(=O)O)N(C(=O)C2CC(C)(C)C2)[C@H]1c1ccccc1 [II-328] | > 200% | 1 to 10 µM | +++ (≥350) | 1 to 10 µM
12 | CCC(CC)C(=O)N1[C@H](C(=O)O)[C@@H](C(C)(C)C)[C@H](NCc2cc(C(C)(C)C)ccc2OC)[C@@H]1c1ccccc1 [II-329] | > 200% | 1 to 10 µM | +++ (≥350) | 1 to 10 µM
13 | COc1ccc(C(C)(C)C)cc1CN[C@H]1[C@H](C(C)(C)C)[C@@H](C(=O)O)N(C(=O)C(C)Oc2cccc(Cl)c2)[C@H]1c1ccccc1 (some centres unmarked) [II-330] | > 200% | 1 to 10 µM | +++ (≥350) | < 1 µM
14 | COc1ccc(C(C)(C)C)cc1CN[C@H]1[C@H](C(C)(C)C)[C@@H](C(=O)O)N(C(=O)C2CC2c2ccncc2)[C@H]1c1ccccc1 (some centres unmarked) [II-331] | 100 to 200% | 1 to 10 µM | +++ (≥350) | 1 to 10 µM
15 | COc1ccc(C(C)(C)C)cc1CN[C@H]1[C@H](C(C)(C)C)[C@@H](C(=O)O)N(C(=O)C2CCCC2)[C@H]1c1ccccc1 [II-332] | > 200% | 1 to 10 µM | +++ (≥350) | < 1 µM
16 | COc1ccc(C(C)(C)C)cc1CN[C@H]1[C@H](C(C)(C)C)[C@@H](C(=O)O)N(C(=O)C2CC2)[C@H]1c1ccccc1 [II-333] | > 200% | 1 to 10 µM | +++ (≥350) | 1 to 10 µM
17 | COc1ccc(C(C)(C)C)cc1CN[C@H]1[C@H](C(C)(C)C)[C@@H](C(=O)O)N(C(=O)C2CCC(F)(F)C2)[C@H]1c1ccccc1 (some centres unmarked) [II-334] | > 200% | 1 to 10 µM | +++ (≥350) | 1 to 10 µM
18 | COc1ccc(C(C)(C)C)cc1CN[C@H]1[C@H](C(C)(C)C)[C@@H](C(=O)O)N(C(=O)C2CC(F)C2)[C@H]1c1ccccc1 (some centres unmarked) [II-335] | > 200% | 1 to 10 µM | +++ (≥350) | 1 to 10 µM

Row | SMILES | Emax [1] | EC50 [2] | Maximum % activity (with co-corrector) [3] | EC50 [4]
19 | COc1ccc(C(C)(C)C)cc1CN[C@H]1[C@H](C(C)(C)C)[C@@H](C(=O)O)N(C(=O)C2CC(F)(F)C2)[C@H]1c1ccccc1 [II-336] | 100 to 200% | 1 to 10 µM | +++ (≥350) | 1 to 10 µM
20 | COc1ccc(C(C)(C)C)cc1CN[C@H]1[C@H](C(C)(C)C)[C@@H](C(=O)O)N(C(=O)C2CCc3ccccc32)[C@H]1c1ccccc1 (some centres unmarked) [II-337] | > 200% | < 1 µM | +++ (≥350) | < 1 µM
21 | COc1ccc(C2CCOCC2)cc1CN[C@H]1[C@H](C(C)(C)C)[C@@H](C(=O)O)N(C(=O)C2CCCCC2)[C@H]1c1ccccc1 [II-340] | 100 to 200% | 1 to 10 µM | +++ (≥350) | 1 to 10 µM
22 | COc1ncc(-c2ccccc2C)cc1CN[C@H]1[C@H](C(C)(C)C)[C@@H](C(=O)O)N(C(=O)C2CCCCC2)[C@H]1c1ccccc1 [II-342] | > 200% | < 1 µM | +++ (≥350) | < 1 µM
23 | COc1ncc(-c2ccc(F)cc2C)cc1CN[C@H]1[C@H](C(C)(C)C)[C@@H](C(=O)O)N(C(=O)C2CCCCC2)[C@H]1c1ccccc1 [II-343] | 100 to 200% | < 1 µM | +++ (≥350) | < 1 µM
24 | COc1ncc(-c2ccc(F)cc2F)cc1CN[C@H]1[C@H](C(C)(C)C)[C@@H](C(=O)O)N(C(=O)C2CCCCC2)[C@H]1c1ccccc1 [II-344] | 100 to 200% | 1 to 10 µM | +++ (≥350) | < 1 µM
25 | COc1ncc(-c2cccnc2)cc1CN[C@H]1[C@H](C(C)(C)C)[C@@H](C(=O)O)N(C(=O)C2CCCCC2)[C@H]1c1ccccc1 [II-345] | < 100% | 1 to 10 µM | +++ (≥350) | 1 to 10 µM
26 | COc1ncc(-c2cccc(F)c2F)cc1CN[C@H]1[C@H](C(C)(C)C)[C@@H](C(=O)O)N(C(=O)C2CCCCC2)[C@H]1c1ccccc1 [II-346] | > 200% | 1 to 10 µM | +++ (≥350) | 1 to 10 µM
27 | COc1ncc(-c2ccc(C)cc2)cc1CN[C@H]1[C@H](C(C)(C)C)[C@@H](C(=O)O)N(C(=O)C2CCCCC2)[C@H]1c1ccccc1 [II-347] | 100 to 200% | < 1 µM | +++ (≥350) | < 1 µM
28 | COc1ncc(-c2cccnc2C)cc1CN[C@H]1[C@H](C(C)(C)C)[C@@H](C(=O)O)N(C(=O)C2CCCCC2)[C@H]1c1ccccc1 [II-348] | < 100% | 1 to 10 µM | +++ (≥350) | 1 to 10 µM
29 | COc1ncc(C2=CCOCC2)cc1CN[C@H]1[C@H](C(C)(C)C)[C@@H](C(=O)O)N(C(=O)C2CCCCC2)[C@H]1c1ccccc1 [II-349] | < 100% | 1 to 10 µM | +++ (≥350) | 1 to 10 µM
30 | COc1ncc(C2=CCOC2)cc1CN[C@H]1[C@H](C(C)(C)C)[C@@H](C(=O)O)N(C(=O)C2CCCCC2)[C@H]1c1ccccc1 [II-350] | 100 to 200% | 1 to 10 µM | +++ (≥350) | 1 to 10 µM
31 | COc1ncc(C(C)(C)C)cc1CN[C@H]1[C@H](C(C)(C)C)[C@@H](C(=O)O)N(C(=O)C2CCCCC2)[C@H]1c1ccccc1F [II-351] | 100 to 200% | < 1 µM | +++ (≥350) | < 1 µM
32 | COc1ccc(C2CC2)cc1CN[C@H]1[C@H](C(C)(C)C)[C@@H](C(=O)O)N(C(=O)C2CCCCC2)[C@H]1c1ccccc1 [II-352] | > 200% | 1 to 10 µM | +++ (≥350) | < 1 µM
33 | COc1ccc(C2(C(F)(F)F)CC2)cc1CN[C@H]1[C@H](C(C)(C)C)[C@@H](C(=O)O)N(C(=O)C2CCCCC2)[C@H]1c1ccccc1F [II-353] | > 200% | 1 to 10 µM | +++ (≥350) | < 1 µM
34 | COc1ccc(C(C)(C)C)cc1CN[C@H]1[C@H](C(C)(C)C)[C@@H](C(=O)O)N(C(=O)c2cnn(-c3ccc(F)cc3)c2C)[C@H]1c1ccccc1 [II-354] | > 200% | < 1 µM | +++ (≥350) | < 1 µM
35 | COc1ccc(C(C)(C)C)cc1CN[C@H]1[C@H](C(C)(C)C)[C@@H](C(=O)O)N(C(=O)c2cnn(C(C)(C)C)c2C#N)[C@H]1c1ccccc1 [II-355] | 100 to 200% | 1 to 10 µM | +++ (≥350) | < 1 µM
